The results in this text go back to patent US20020071842A1, “Soluble CD1 compositions and uses thereof” (priority 2000, published 2002).

Common to all, as to test: Plate-bound mCD1d fusion protein hybridoma stimulation assay (IL-2 ELISA)
Format in all cases: cell-based, mouse
A general note: ELISA stands for enzyme-linked immunosorbent assay.

For one assay, the system named is 24.8.A hybridoma. Particulars: for IL-2 response to mCD1d fusion protein pre-treated with purified or synthetic lipid: 24.8.A hybridoma, compared to untreated or buffer treated fusion protein; for IL-2 secretion: 24.8 A NKT hybridoma, plate-bound mCD1d-IgGFc2a fusion protein preincubated with lipid antigen. The text has this: (§1) The CD1d-restricted T cell clones 24.7, 24.8, 24.9 (NKT cell) and 14S.6, 14S.7, 14S.10, and 14S.15 (diverse TCRs) were all derived from spleen of wild type C57BL/6 mice, as described previously (Behar, S. M. et al., J. Immunol., 162:161-7 (1999)). To generate T cell hybridomas, the activated T cells were fused to the aminopterin-sensitive BW5147 αβTCR^− thymoma cell line using PEG1500, and hybrids were selected in HAT medium (Life Technologies, Gaithersburg, Md.). Resulting TT hybridomas were tested for recognition of RMA-S cells transfected with mCD1D1 compared to untransfected RMA-S cells, as described below. […] The hybridomas are distinguished from the original T cell clones by the addition of a letter to their names. The KT/7, KT/12, KT/22, and KT/23 and Vβ/9 NKT cell hybridomas were derived from NK1.1^+ T cells enriched from spleen of C57BL/6 mice by depletion of CD8+ T cells, naive T cells, and B cells by mAbs (anti-B220, CD8, and CD62L, or anti-CD8α, CD8β, and Me114) bound to magnetic microbeads, or to plastic. The purified cells were stimulated either by the anti-CD3 KT3 mAb (KT/7, KT/12, KT/22, KT/23), or by an anti-Vβ8.2 mAb (Vβ/9), and addition of IL-2 or IL-2 and IL-7. After 4-5 days of culture the cells were fused with BW5147 thymoma cells. The VII68, VIII24, XVI9, and XV104 diverse TCR hybridomas were generated from CD4^+ T cells from class 110 mice, as described previously (Cardell, S. et al., J. Exp. Med., 182:993-1004 (1995)). The DN32D3 hybridoma was derived as described (Lantz, O., and Bendelac, A., J. Exp. Med., 180:1097-106 (1994).
(§2) To test for recognition of the mCD1d fusion protein and purified or synthetic antigens, 96 well protein A coated plates (Pierce Chemical Company) were incubated with 400-600 ng/well of the fusion protein or a negative control IgG2a antibody, RPC5.4 or UPC10, in PBS, at pH 7.2. Lipid antigens were diluted into PBS and added where specified at the indicated molar ratio of antigen to fusion protein, (when not specified the ratio was 40:1). Protein A plates containing the fusion protein and antigen were incubated 24-48 hr at 37° C., then washed three times with 200 μl/well sterile PBS, pH 7.2, and two times with 200 μl/well sterile culture medium (containing RPMI supplemented with L-glutamine and penicillin/streptomycin, Life Technologies, Gaithersburg, Md., and 10% bovine calf serum, Hyclone Laboratories, Logan, Utah). For assays in which the PI was phospholipase treated, it was first diluted into 0.01M Tris, 0.15M NaCl, pH 7.5, containing 0.25 U PI-specific phospholipase C or 0.5 U phospholipase D (Sigma, St Louis, Mo.), and incubated 30 minutes at room temperature, then added to the protein A plates as described above. For assays in which the pH was varied during antigen incubation with the fusion protein, the fusion protein and α-GalCer were diluted into a 20 mM citrate/phosphate buffer of the specified pH, which contained 0.15 M NaCl, and after incubation, the samples were neutralized by addition of 1M Tris, pH 7.5. Hybridoma cells were added to fusion protein/antigen treated plates at a concentration of 1×10^5 cells/well, in a total volume of 150 μl/well. Assays were performed using 2-6 replicate wells. In some assays, an anti-mCD1d blocking antibody (19G11) was included at a final concentration of 20 μg/ml. The plates were incubated at 37° C. for 16-20 hr, and culture supernatants were withdrawn for analysis. Each experiment was performed at least three times.
IL-2 secreted in the hybridoma stimulation assays was quantitated in a double antibody sandwich ELISA, by comparison to a standard curve of purified murine IL-2 (Pharmingen, San Diego, Calif.). Hybridoma plate stimulation supernatants (used either neat or diluted) and serially diluted IL-2 standards were added to 96 well ELISA plates coated with a rat anti-mouse IL-2 capture antibody (Pharmingen).

The test system of the next assay is KT/12 hybridoma. The following applies: KT/12 NKT hybridoma; plate-bound mCD1d-IgGFc2a fusion protein preincubated with lipid antigen.
From the text: as §1, §2
(§3) IL-2 secreted in the hybridoma stimulation assays was quantitated in a double antibody sandwich ELISA, by comparison to a standard curve of purified murine IL-2 (Pharmingen, San Diego, Calif.). Hybridoma plate stimulation supernatants (used either neat or diluted) and serially diluted IL-2 standards were added to 96 well ELISA plates coated with a rat anti-mouse IL-2 capture antibody (Pharmingen). […]

The next assay relates to KT/7 hybridoma. Particulars: KT/7 NKT hybridoma; plate-bound mCD1d-IgGFc2a fusion protein preincubated with lipid antigen.
From the text: as §1, §2, §3

A further assay deals with Vβ/9 hybridoma. The following applies: Vβ/9 NKT hybridoma; plate-bound mCD1d-IgGFc2a fusion protein preincubated with lipid antigen.
From the text: as §1, §2, §3

A further assay has as its system VIII24 hybridoma. Particulars: VIII24 diverse TCR hybridoma; plate-bound mCD1d-IgGFc2a fusion protein preincubated with lipid antigen.
From the text: as §1, §2, §3

The next assay concerns 14S.7.N hybridoma. Particulars: 14S.7.N diverse TCR hybridoma; plate-bound mCD1d-IgGFc2a fusion protein preincubated with lipid antigen.
From the text: as §1, §2, §3

In the next assay the test system is KT/22 hybridoma. Particulars: KT/22 NKT hybridoma; plate-bound mCD1d-IgGFc2a fusion protein preincubated with lipid antigen.
From the text: as §1, §2, §3

For the next assay, the system named is 24.7.C hybridoma. Particulars: 24 7.C NKT hybridoma; plate-bound mCD1d-IgGFc2a fusion protein preincubated with lipid antigen.
From the text: as §1, §2, §3

A further assay concerns KT/23 hybridoma. The following applies: KT/23 NKT hybridoma; plate-bound mCD1d-IgGFc2a fusion protein preincubated with lipid antigen.
From the text: as §1, §2, §3

The next assay relates to XV19 hybridoma. The following applies: XV19 diverse TCR hybridoma; plate-bound mCD1d-IgGFc2a fusion protein preincubated with lipid antigen.
From the text: as §1, §2, §3

The subject of another assay is 14S.15.A hybridoma. The following applies: 14S.15.A diverse TCR hybridoma; plate-bound mCD1d-IgGFc2a fusion protein preincubated with lipid antigen.
From the text: as §1, §2, §3

The next assay has as its system 24.9.E hybridoma. Particulars: 24.9 E NKT hybridoma; plate-bound mCD1d-IgGFc2a fusion protein preincubated with lipid antigen.
From the text: as §1, §2, §3

In a further assay the test system is XV104 hybridoma. The following applies: XV104 diverse TCR hybridoma; plate-bound mCD1d-IgGFc2a fusion protein preincubated with lipid antigen.
From the text: as §1, §2, §3

In the next assay the test system is VII68 hybridoma. The following applies: VII68 diverse TCR hybridoma; plate-bound mCD1d-IgGFc2a fusion protein preincubated with lipid antigen.
From the text: as §1, §2, §3

Another assay deals with DN32D3 hybridoma. The following applies: DN32D3 NKT hybridoma; plate-bound mCD1d-IgGFc2a fusion protein preincubated with lipid antigen.
From the text: as §1, §2, §3

Another assay has as its system 14S.6.A hybridoma. Particulars: 14S.6.A diverse TCR hybridoma; plate-bound mCD1d-IgGFc2a fusion protein preincubated with lipid antigen.
From the text: as §1, §2, §3

For phosphatidylglycerol [PG], the “IL-2 response to mCD1d fusion protein pre-treated with purified or synthetic lipid” value (“IL-2 response” for short) with 24.8.A hybridoma is “dose dependent responses”. Also, the IL-2 secretion entry is given as “++ (“++” indicates 250-1000 pg/ml)” in the assay on 24.8.A hybridoma; 0 (A “0” indicates a mean of less than 50 pg/ml IL-2 was secreted) with KT/12 hybridoma; 0 (A “0” indicates a mean of less than 50 pg/ml IL-2 was secreted) in the assay with KT/7 hybridoma; 0 (A “0” indicates a mean of less than 50 pg/ml IL-2 was secreted) in the assay with Vβ/9 hybridoma; 0 (A “0” indicates a mean of less than 50 pg/ml IL-2 was secreted) in the assay with VIII24 hybridoma; “+ (“+” indicates 50-250 pg/ml)” in the assay with 14S.7.N hybridoma. For the same molecule, the IL-2 secretion in the assay with KT/22 hybridoma is given as 0 (A “0” indicates a mean of less than 50 pg/ml IL-2 was secreted); with 24.7.C hybridoma, 0 (A “0” indicates a mean of less than 50 pg/ml IL-2 was secreted); with KT/23 hybridoma it was 0 (A “0” indicates a mean of less than 50 pg/ml IL-2 was secreted); with XV19 hybridoma, 0 (A “0” indicates a mean of less than 50 pg/ml IL-2 was secreted); in the assay with 14S.15.A hybridoma, “+ (“+” indicates 50-250 pg/ml)”; with 24.9.E hybridoma it was “+ (“+” indicates 50-250 pg/ml)”. Further, the IL-2 secretion with XV104 hybridoma was 0 (A “0” indicates a mean of less than 50 pg/ml IL-2 was secreted); with VII68 hybridoma it was 0 (A “0” indicates a mean of less than 50 pg/ml IL-2 was secreted); with DN32D3 hybridoma it was 0 (A “0” indicates a mean of less than 50 pg/ml IL-2 was secreted); in the assay with 14S.6.A hybridoma it was “+ (“+” indicates 50-250 pg/ml)”.
`O[C@H]1[C@H](O)[C@@H](O)[C@H](O)[C@@H](O)[C@H]1O` [inositol]: the “IL-2 response” value in the assay on 24.8.A hybridoma is “little or no stimulation”.
For `CCCCCCCCCCCCCCCC(=O)O` [palmitate, Palmitic acid], the “IL-2 response” value with 24.8.A hybridoma was “little or no stimulation”.
For the molecule `CCCCCCCCCCCCCCCC(=O)OCC(COP(=O)(O)O)OC(=O)CCCCCCCCCCCCCCC` (stereo not shown) [PA, phosphatidic acid], in the assay with 24.8.A hybridoma, the “IL-2 response” value is recorded as “little or no stimulation”. Besides, the IL-2 secretion result is reported as “+ (“+” indicates 50-250 pg/ml)” in the assay on 24.8.A hybridoma; 0 (A “0” indicates a mean of less than 50 pg/ml IL-2 was secreted) with KT/12 hybridoma; 0 (A “0” indicates a mean of less than 50 pg/ml IL-2 was secreted) in the assay on KT/7 hybridoma; 0 (A “0” indicates a mean of less than 50 pg/ml IL-2 was secreted) in the assay with Vβ/9 hybridoma; 0 (A “0” indicates a mean of less than 50 pg/ml IL-2 was secreted) in the assay on VIII24 hybridoma; 0 (A “0” indicates a mean of less than 50 pg/ml IL-2 was secreted) with 14S.7.N hybridoma. The IL-2 secretion with KT/22 hybridoma, in the assay on 24.7.C hybridoma, with KT/23 hybridoma, in the assay on XV19 hybridoma, in the assay on 14S.15.A hybridoma and in the assay with 24.9.E hybridoma was 0 (A “0” indicates a mean of less than 50 pg/ml IL-2 was secreted) in each case. Also, the IL-2 secretion in the assay on XV104 hybridoma, with VII68 hybridoma, in the assay with DN32D3 hybridoma and in the assay with 14S.6.A hybridoma was 0 (A “0” indicates a mean of less than 50 pg/ml IL-2 was secreted) in each case.
For the molecule phosphatidylethanolamine [PE], the “IL-2 response” value in the assay with 24.8.A hybridoma is recorded as “dose dependent responses”. The IL-2 secretion in the assay on 14S.7.N hybridoma is reported as 0 (A “0” indicates a mean of less than 50 pg/ml IL-2 was secreted); in the assay on 24.7.C hybridoma, 0 (A “0” indicates a mean of less than 50 pg/ml IL-2 was secreted); in the assay with 14S.15.A hybridoma it was 0 (A “0” indicates a mean of less than 50 pg/ml IL-2 was secreted); with 24.9.E hybridoma, 0 (A “0” indicates a mean of less than 50 pg/ml IL-2 was secreted); in the assay with DN32D3 hybridoma it was 0 (A “0” indicates a mean of less than 50 pg/ml IL-2 was secreted); with 14S.6.A hybridoma it was “+ (“+” indicates 50-250 pg/ml)”.
